Measurements reported in PubChem BioAssay (NCI).
Values joined by “and” are separate entries in the source; they are usually repeats but may differ in a detail not shown here. Identical values can stand only once.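 Grown in 96-well plates, cells were treated for 48 hours with each compound at five concentrations. Insufficient inhibition: endpoint recorded as highest concentration tested. GI50: concentration for 50% inhibition of growth. Definition used: TGI = concentration required for complete inhibition of growth.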

Key:
Experiment in all cases: NCI tumour cell line growth inhibition, 48 h
[1] = test system: SK-MEL-2 melanoma
[2] = test system: SR leukemia
[3] = test system: TK-10 renal
[4] = test system: IGROV1 ovarian
[5] = test system: ACHN renal
[6] = test system: SK-OV-3 ovarian
[7] = test system: HOP-92 NSCLC
[8] = test system: 786-0 renal
[9] = test system: A498 renal
[10] = test system: CAKI-1 renal

SMILES: CN(C)c1ccc2c(c1)CN1C(=O)c3ccccc3C1=N2
- GI50 [1]: > 100 µM
- TGI [1]: > 100 µM
- GI50 [2]: > 100 µM
- TGI [2]: > 100 µM
- GI50 [3]: > 100 µM
- TGI [3]: > 100 µM
- GI50 [4]: > 100 µM
- TGI [4]: > 100 µM
- GI50 [5]: > 100 µM
- TGI [5]: > 100 µM
- GI50 [6]: > 100 µM
- TGI [6]: > 100 µM
- GI50 [7]: > 100 µM
- TGI [7]: > 100 µM
- GI50 [8]: > 100 µM
- TGI [8]: > 100 µM

SMILES: CC1(C)C(c2ccccc2)=NN(O)c2ccccc21
- TGI [1]: > 100 µM
- TGI [9]: > 100 µM
- TGI [3]: > 100 µM
- TGI [4]: > 100 µM
- TGI [6]: > 100 µM
- TGI [8]: > 100 µM
- TGI [10]: > 100 µM

SMILES: CCOC(=O)c1cc(/C=C/C(C)=C/C(=O)OC)oc1-c1ccccc1
- TGI [1]: > 100 µM
- TGI [9]: > 100 µM
- TGI [3]: > 100 µM
- TGI [4]: > 100 µM
- TGI [5]: > 100 µM
- TGI [6]: > 100 µM
- TGI [8]: > 100 µM
- TGI [10]: > 100 µM

SMILES: CCOC(=O)C1=C(C)NC2SC(=O)/C(=C\c3ccccc3Cl)N2C1c1ccccc1 (stereo unspecified)
- GI50 [1]: > 100 µM
- TGI [1]: > 100 µM
- GI50 [9]: > 100 µM
- TGI [9]: > 100 µM
- GI50 [3]: > 100 µM
- TGI [3]: > 100 µM
- GI50 [4]: > 100 µM
- TGI [4]: > 100 µM
- GI50 [5]: > 100 µM
- TGI [5]: > 100 µM
- GI50 [6]: > 100 µM
- TGI [6]: > 100 µM
- GI50 [7]: > 100 µM
- TGI [7]: > 100 µM
- GI50 [8]: > 100 µM
- TGI [8]: > 100 µM
- GI50 [10]: > 100 µM
- TGI [10]: > 100 µM

SMILES: O=[N+]([O-])c1cc([N+](=O)[O-])c(Cl)c(Cl)c1Cl
- GI50 [1]: 1.76 µM
- TGI [1]: 3.42 µM
- GI50 [9]: 5.2 µM
- TGI [9]: 17.9 µM
- GI50 [2]: 0.639 µM
- TGI [2]: 5.86 µM
- GI50 [3]: 1.8 µM
- TGI [3]: 3.65 µM
- GI50 [4]: 1.23 µM
- TGI [4]: 7.25 µM
- GI50 [5]: 1.04 µM
- TGI [5]: 2.3 µM
- GI50 [6]: 5.84 µM
- TGI [6]: 18.4 µM
- GI50 [7]: 1.68 µM
- TGI [7]: 3.15 µM
- GI50 [8]: 0.804 µM
- TGI [8]: 2.09 µM

SMILES: Cc1onc(-c2c(F)cccc2Cl)c1-c1ncc(-c2ccc(Cl)cc2)o1
- GI50 [9]: 5.09 µM
- TGI [9]: > 100 µM
- GI50 [2]: 2.92 µM
- TGI [2]: 31.3 µM
- GI50 [3]: 8.33 µM
- TGI [3]: > 100 µM
- GI50 [4]: 6.44 µM
- TGI [4]: > 100 µM
- GI50 [5]: 5.15 µM
- TGI [5]: > 100 µM
- GI50 [6]: 9.33 µM
- TGI [6]: > 100 µM
- GI50 [8]: 5.14 µM
- TGI [8]: > 100 µM
- GI50 [10]: 4.7 µM
- TGI [10]: > 100 µM

SMILES: CCC1=C(C)/C(=C/c2[nH]c(C(Br)Br)c(CC)c2C)N=C1C(Br)Br
- TGI [1]: > 100 µM
- TGI [2]: 32.6 µM
- TGI [3]: > 100 µM
- TGI [4]: > 100 µM
- TGI [5]: > 100 µM
- TGI [6]: > 100 µM
- TGI [7]: > 100 µM
- TGI [8]: > 100 µM

SMILES: CN1C(OCc2ccccc2)c2c(ccc3c2OCO3)C2C=Cc3cc4c(cc3C21)OCO4 (stereo unspecified)
- TGI [1]: 2.92 µM
- TGI [3]: 3.3 µM
- TGI [4]: 2.09 µM
- TGI [5]: 2.83 µM
- TGI [6]: 2.46 µM
- TGI [7]: 2.3 µM
- TGI [8]: 2.65 µM
- TGI [10]: 2.2 µM

SMILES: COc1c(C2=NC(C(C)C)CO2)ccc2ccccc12 (stereo unspecified)
- TGI [1]: > 100 µM
- TGI [9]: > 100 µM
- TGI [3]: > 100 µM
- TGI [4]: > 100 µM
- TGI [5]: > 100 µM
- TGI [6]: > 100 µM
- TGI [7]: > 100 µM
- TGI [8]: > 100 µM
- TGI [10]: > 100 µM

SMILES: Cc1cc(N2CCN(C)CC2)nc(NCc2cc(Nc3ccnc4cc(Cl)ccc34)ccc2F)n1
- GI50 [1]: 1.95 µM
- TGI [1]: 3.8 µM
- GI50 [9]: 1.52 µM
- TGI [9]: 4.03 µM
- GI50 [2]: 1.94 µM
- TGI [2]: 4.89 µM
- GI50 [3]: 2.25 µM
- TGI [3]: 5.82 µM
- GI50 [4]: 2.04 µM
- TGI [4]: 7.26 µM
- GI50 [5]: 1.88 µM
- TGI [5]: 3.45 µM
- GI50 [6]: 2.64 µM
- TGI [6]: 6.27 µM
- GI50 [8]: 1.84 µM
- TGI [8]: 3.7 µM
- GI50 [10]: 2.68 µM
- TGI [10]: 8.61 µM

SMILES: COc1cc(=O)oc(/C=C/C=O)c1C
- TGI [9]: > 100 µM
- TGI [2]: 7.6 µM
- TGI [3]: 76.2 µM
- TGI [4]: > 100 µM
- TGI [5]: 39.6 µM
- TGI [6]: 75.9 µM
- TGI [7]: 53.4 µM
- TGI [8]: 42 µM
- TGI [10]: 79.9 µM

SMILES: NC(C/[N+]([O-])=N/O)C(=O)O (stereo unspecified)
- GI50 [1]: 115 µM
- TGI [1]: > 100 µM and 359 µM
- TGI [2]: > 228 µM
- GI50 [3]: > 66.2 µM and > 100 µM and 30.9 µM
- TGI [3]: > 459 µM
- GI50 [4]: 0.107 µM and 0.967 µM and 0.348 µM
- TGI [4]: > 24.7 µM and > 100 µM and 256 µM
- GI50 [5]: 2.98 µM
- TGI [5]: > 500 µM
- GI50 [6]: 58 µM and > 100 µM and 55.7 µM
- TGI [6]: > 100 µM and 300 µM
- GI50 [7]: > 91.7 µM and 71.4 µM and 33.4 µM
- TGI [7]: > 100 µM and 209 µM
- GI50 [8]: 1.16 µM and 9.72 µM and 4.15 µM
- TGI [8]: > 500 µM
- GI50 [10]: 16.6 µM and 32.2 µM and 4.52 µM
- TGI [10]: > 100 µM and 102 µM

SMILES: CC(=O)OCCOCNC(=S)N/N=C/c1ccc2ccccc2n1
- TGI [1]: > 100 µM
- TGI [9]: > 100 µM
- TGI [2]: > 100 µM
- TGI [3]: > 100 µM
- TGI [4]: > 100 µM
- TGI [5]: > 100 µM
- TGI [6]: > 100 µM
- TGI [8]: > 100 µM

SMILES: Cc1c(C(=O)CC(=O)C(=O)Nc2c(C(C)C)cccc2C(C)C)[n+](=O)c2ccccc2n1[O-]
- TGI [1]: 28.4 µM
- TGI [9]: 49.6 µM
- TGI [3]: 60.2 µM
- TGI [4]: 11.4 µM
- TGI [5]: 15.3 µM
- TGI [6]: 40.1 µM
- TGI [7]: 35.1 µM
- TGI [8]: 22.7 µM
- TGI [10]: 43 µM

SMILES: O=C1c2ccccc2C(=O)C2C1C1C(=O)c3ccccc3C(=O)C21 (stereo unspecified)
- TGI [1]: > 100 µM
- TGI [3]: > 100 µM
- TGI [4]: > 100 µM
- TGI [5]: > 100 µM
- TGI [6]: > 100 µM
- TGI [7]: > 100 µM
- TGI [8]: > 100 µM
- TGI [10]: > 100 µM

SMILES: CNC(=S)N/N=C1\CC(c2ccccc2)Oc2ccccc21 (stereo unspecified)
- TGI [1]: > 100 µM
- TGI [2]: > 100 µM
- TGI [3]: > 100 µM
- TGI [4]: > 100 µM
- TGI [5]: > 100 µM
- TGI [6]: > 100 µM
- TGI [7]: > 100 µM
- TGI [8]: > 100 µM
- TGI [10]: > 100 µM

SMILES: O=C(c1ccccc1)C(c1ccccc1)C1(O)C(=O)Nc2ccccc21 (stereo unspecified)
- TGI [1]: > 100 µM
- TGI [9]: > 100 µM
- TGI [3]: > 100 µM
- TGI [4]: > 100 µM
- TGI [5]: > 100 µM
- TGI [6]: > 100 µM
- TGI [7]: > 100 µM
- TGI [8]: > 100 µM
- TGI [10]: > 100 µM

SMILES: COc1cc(/C=N/Nc2ncnc3c2cnn3C(C)C)ccc1O
- GI50 [1]: 6.82 µM
- TGI [1]: 18.7 µM
- GI50 [9]: 8.58 µM
- TGI [9]: 24.8 µM
- GI50 [3]: 8.3 µM
- TGI [3]: 21.3 µM
- GI50 [4]: 7.56 µM
- TGI [4]: 20.5 µM
- GI50 [5]: 5.95 µM
- TGI [5]: > 25 µM
- GI50 [6]: 10.1 µM
- TGI [6]: > 25 µM
- GI50 [7]: 0.357 µM
- TGI [7]: 4.99 µM
- GI50 [8]: 10.8 µM
- TGI [8]: > 25 µM
- GI50 [10]: 6.43 µM
- TGI [10]: > 25 µM

SMILES: [N-]=[N+]=Nc1ccc(CCN2CCN(c3cccc(C(F)(F)F)c3)CC2)cc1I
- TGI [1]: > 100 µM
- TGI [9]: > 100 µM
- TGI [2]: > 100 µM
- TGI [3]: > 100 µM
- TGI [5]: > 100 µM
- TGI [6]: > 100 µM
- TGI [8]: > 100 µM
- TGI [10]: > 100 µM
